In patent US9708314B2, “Heterocyclic amide compound” (NISSAN CHEMICAL INDUSTRIES, LTD., priority 2013, dated 2017):

Key:
Format in all cases: in vivo
Stellaria media = experiment: Test Example 4: herbicidal effect by application to foliage (diluvial soil, plastic box); conditions: application to foliage; for P: herbicidal effect on Stellaria media: application herbicide amount 320 g/ha; for herbicidal effect, P (Stellaria media): 320 g/ha
Method in brief: (§1)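 Emulsion-formulated compound, diluted to a predetermined g/ha dose, applied by small sprayer to leaves and stems of 14-day-old seedlings grown in sterilized diluvial soil. Effect rated on 0–5 herbicidal-ratio scale three weeks on.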

Abutilon theophrasti = experiment: as above; conditions: application to foliage; for M: herbicidal effect on Abutilon theophrasti: application herbicide amount 320 g/ha; for herbicidal effect, M (Abutilon theophrasti): 320 g/ha
Method in brief: as §1

Chenopodium album = experiment: as above; conditions: application to foliage; for O: herbicidal effect on Chenopodium album: application herbicide amount 320 g/ha; for herbicidal effect, O (Chenopodium album): 320 g/ha
Method in brief: as §1

Lolium multiflorum Lam. = experiment: as above; conditions: application to foliage; for K: herbicidal effect on Lolium multiflorum Lam.: application herbicide amount 320 g/ha; for herbicidal effect, K (Lolium multiflorum Lam.): 320 g/ha
Method in brief: as §1

Galium spurium = experiment: as above; conditions: application to foliage; for Q: herbicidal effect on Galium spurium: application herbicide amount 320 g/ha; for herbicidal effect, Q (Galium spurium): 320 g/ha
Method in brief: as §1

Apera spica-venti. = experiment: as above; conditions: application to foliage; for L: herbicidal effect on Apera spica-venti.: application herbicide amount 320 g/ha; for herbicidal effect, L (Apera spica-venti.): 320 g/ha
Method in brief: as §1

Alopecurus myosuroides = experiment: as above; conditions: application to foliage; for J: herbicidal effect on Alopecurus myosuroides: application herbicide amount 320 g/ha; for herbicidal effect, J (Alopecurus myosuroides): 320 g/ha
Method in brief: as §1

Avena fatua = experiment: as above; conditions: application to foliage; for I: herbicidal effect on Avena fatua: application herbicide amount 320 g/ha; for herbicidal effect, I (Avena fatua): 320 g/ha
Method in brief: as §1

Digitaria ciliaris = experiment: as above; conditions: application to foliage; for F: herbicidal effect on Digitaria ciliaris: application herbicide amount 320 g/ha; for herbicidal effect, F (Digitaria ciliaris): 320 g/ha
Method in brief: as §1

Veronica persica = experiment: as above; conditions: application to foliage; for R: herbicidal effect on Veronica persica: application herbicide amount 320 g/ha; for herbicidal effect, R (Veronica persica): 320 g/ha
Method in brief: as §1

Setaria viridis = experiment: as above; conditions: application to foliage; for G: herbicidal effect on Setaria viridis: application herbicide amount 320 g/ha; for herbicidal effect, G (Setaria viridis): 320 g/ha
Method in brief: as §1

Amaranthus retroflexus = experiment: as above; conditions: application to foliage; for N: herbicidal effect on Amaranthus retroflexus: application herbicide amount 320 g/ha; for herbicidal effect, N (Amaranthus retroflexus): 320 g/ha
Method in brief: as §1

[1] = tested on: Echinochloa crus-galli var. crus-galli; experiment: as above; conditions: application to foliage; for H: herbicidal effect on Echinochloa crus-galli var. crus-galli: application herbicide amount 320 g/ha; for herbicidal effect, H (Echinochloa crus-galli var. crus-galli): 320 g/ha
Method in brief: as §1

Leptochloa chinensis = experiment: Test Example 3: herbicidal effect by application to foliage (Wagner pot, water depth 0.1-0.5 cm); conditions: Nineteenth Table; application to foliage; application herbicide amount 320 g/ha
Method in brief: (§2)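 Three weeks after spraying, each species was graded 0–5 for herbicidal ratio, 5 being 90% or more. Application: water-diluted emulsifiable concentrate at a fixed g/ha to foliage of 14-day-old greenhouse (25–30 °C) plants in alluvial soil.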

[2] = tested on: Echinochloa crus-galli var. crus-galli; experiment: as above; conditions: Nineteenth Table; application to foliage; application herbicide amount 320 g/ha
Method in brief: as §2

[3] = tested on: Beta vulgaris ssp. vulgaris; experiment: Test Example 4: effect on crop by application to foliage (diluvial soil, plastic box); conditions: application to foliage; for f: effect on crop, Beta vulgaris ssp. vulgaris: application herbicide amount 320 g/ha; for effect on crop, f (Beta vulgaris ssp. vulgaris): 320 g/ha
Method in brief: as §1

Triticum aestivum = experiment: as above; conditions: application to foliage; for e: effect on crop, Triticum aestivum: application herbicide amount 320 g/ha; for effect on crop, e (Triticum aestivum): 320 g/ha
Method in brief: as §1

Glycine max = experiment: as above; conditions: application to foliage; for d: effect on crop, Glycine max: application herbicide amount 320 g/ha; for effect on crop, c (Glycine max): 320 g/ha
Method in brief: as §1

Brassica campestris L. = experiment: as above; conditions: application to foliage; for g: effect on crop, Brassica campestris L.: application herbicide amount 320 g/ha; for effect on crop, g (Brassica campestris L.): 320 g/ha
Method in brief: as §1

Zea mays = experiment: as above; conditions: application to foliage; for c: effect on crop, Zea mays: application herbicide amount 320 g/ha; for effect on crop, b (Zea mays): 320 g/ha
Method in brief: as §1

[4] = tested on: directly sowed Oryza sativa; experiment: as above; conditions: application to foliage; for b: effect on crop, directly sowed Oryza sativa: application herbicide amount 320 g/ha; for effect on crop, d (directly sowed Oryza sativa): 320 g/ha
Method in brief: as §1

Row | Compound | P: herbicidal effect on Stellaria media (Stellaria media) | M: herbicidal effect on Abutilon theophrasti (Abutilon theophrasti) | O: herbicidal effect on Chenopodium album (Chenopodium album) | K: herbicidal effect on Lolium multiflorum Lam. (Lolium multiflorum Lam.) | Q: herbicidal effect on Galium spurium (Galium spurium) | L: herbicidal effect on Apera spica-venti. (Apera spica-venti.) | J: herbicidal effect on Alopecurus myosuroides (Alopecurus myosuroides) | I: herbicidal effect on Avena fatua (Avena fatua) | F: herbicidal effect on Digitaria ciliaris (Digitaria ciliaris) | R: herbicidal effect on Veronica persica (Veronica persica) | G: herbicidal effect on Setaria viridis (Setaria viridis) | N: herbicidal effect on Amaranthus retroflexus (Amaranthus retroflexus) | H: herbicidal effect on Echinochloa crus-galli var. crus-galli [1] | D (herbicidal effect grade) (Leptochloa chinensis) | H (herbicidal effect grade) [2] | f: effect on crop, Beta vulgaris ssp. vulgaris [3] | e: effect on crop, Triticum aestivum (Triticum aestivum) | d: effect on crop, Glycine max (Glycine max) | g: effect on crop, Brassica campestris L. (Brassica campestris L.) | c: effect on crop, Zea mays (Zea mays) | also measured
1 | Cc1nnc(NC(=O)c2ccc(C(F)(F)F)n3c(CC(F)(F)F)nnc23)o1 [1-162] | 3 (Herbicidal ratio of 40% or more and less than 70%) | 3 (Herbicidal ratio of 40% or more and less than 70%) | 4 (Herbicidal ratio of 70% or more and less than 90%) | 1 (Herbicidal ratio of 5% or more and less than 20%) | 2 (Herbicidal ratio of 20% or more and less than 40%) | 0 (Herbicidal ratio of 5% or less (almost no effect)) | 1 (Herbicidal ratio of 5% or more and less than 20%) | 1 (Herbicidal ratio of 5% or more and less than 20%) | 3 (Herbicidal ratio of 40% or more and less than 70%) | 3 (Herbicidal ratio of 40% or more and less than 70%) | 1 (Herbicidal ratio of 5% or more and less than 20%) | 4 (Herbicidal ratio of 70% or more and less than 90%) | 4 (Herbicidal ratio of 70% or more and less than 90%) | 4 (Herbicidal ratio of 70% or more and less than 90%) | 4 (Herbicidal ratio of 70% or more and less than 90%) | 3 (Herbicidal ratio of 40% or more and less than 70%) | 0 (Herbicidal ratio of 5% or less (almost no effect)) | 3 (Herbicidal ratio of 40% or more and less than 70%) | 1 (Herbicidal ratio of 5% or more and less than 20%) | 0 (Herbicidal ratio of 5% or less (almost no effect)) | b: effect on crop, directly sowed Oryza sativa [4]: 0 (Herbicidal ratio of 5% or less (almost no effect))
2 | Cc1nnc(NC(=O)c2ccc(C(F)(F)F)n3c(CC#N)nnc23)o1 [1-168] | 5 (Herbicidal ratio of 90% or more (almost completely withered)) | 3 (Herbicidal ratio of 40% or more and less than 70%) | 5 (Herbicidal ratio of 90% or more (almost completely withered)) | 1 (Herbicidal ratio of 5% or more and less than 20%) | 1 (Herbicidal ratio of 5% or more and less than 20%) | 0 (Herbicidal ratio of 5% or less (almost no effect)) | 0 (Herbicidal ratio of 5% or less (almost no effect)) | 1 (Herbicidal ratio of 5% or more and less than 20%) | 5 (Herbicidal ratio of 90% or more (almost completely withered)) | 5 (Herbicidal ratio of 90% or more (almost completely withered)) | 4 (Herbicidal ratio of 70% or more and less than 90%) | 3 (Herbicidal ratio of 40% or more and less than 70%) | 5 (Herbicidal ratio of 90% or more (almost completely withered)) | 3 (Herbicidal ratio of 40% or more and less than 70%) | 4 (Herbicidal ratio of 70% or more and less than 90%) | 5 (Herbicidal ratio of 90% or more (almost completely withered)) | 1 (Herbicidal ratio of 5% or more and less than 20%) | 3 (Herbicidal ratio of 40% or more and less than 70%) | 3 (Herbicidal ratio of 40% or more and less than 70%) | 0 (Herbicidal ratio of 5% or less (almost no effect)) | b: effect on crop, directly sowed Oryza sativa [4]: 3 (Herbicidal ratio of 40% or more and less than 70%)
3 | Cn1nnnc1NC(=O)c1ccc(C(F)(F)F)n2c(SC3CCCC3)nnc12 [2-096] | – | – | – | – | – | – | – | – | – | – | – | – | – | 0 (Herbicidal ratio of 5% or less (almost no effect)) | 0 (Herbicidal ratio of 5% or less (almost no effect)) | – | – | – | – | – | herbicidal effect, P (Stellaria media) (Stellaria media): 4 (Herbicidal ratio of 70% or more and less than 90%); herbicidal effect, M (Abutilon theophrasti) (Abutilon theophrasti): 5 (Herbicidal ratio of 90% or more (almost completely withered)); herbicidal effect, O (Chenopodium album) (Chenopodium album): 5 (Herbicidal ratio of 90% or more (almost completely withered)); herbicidal effect, K (Lolium multiflorum Lam.) (Lolium multiflorum Lam.): 0 (Herbicidal ratio of 5% or less (almost no effect)); herbicidal effect, Q (Galium spurium) (Galium spurium): 3 (Herbicidal ratio of 40% or more and less than 70%); herbicidal effect, L (Apera spica-venti.) (Apera spica-venti.): 0 (Herbicidal ratio of 5% or less (almost no effect)); herbicidal effect, J (Alopecurus myosuroides) (Alopecurus myosuroides): 0 (Herbicidal ratio of 5% or less (almost no effect)); herbicidal effect, I (Avena fatua) (Avena fatua): 1 (Herbicidal ratio of 5% or more and less than 20%); herbicidal effect, F (Digitaria ciliaris) (Digitaria ciliaris): 5 (Herbicidal ratio of 90% or more (almost completely withered)); herbicidal effect, R (Veronica persica) (Veronica persica): 3 (Herbicidal ratio of 40% or more and less than 70%); herbicidal effect, G (Setaria viridis) (Setaria viridis): 4 (Herbicidal ratio of 70% or more and less than 90%); herbicidal effect, N (Amaranthus retroflexus) (Amaranthus retroflexus): 5 (Herbicidal ratio of 90% or more (almost completely withered)); herbicidal effect, H (Echinochloa crus-galli var. crus-galli) [1]: 5 (Herbicidal ratio of 90% or more (almost completely withered)); effect on crop, f (Beta vulgaris ssp. vulgaris) [3]: 5 (Herbicidal ratio of 90% or more (almost completely withered)); effect on crop, e (Triticum aestivum) (Triticum aestivum): 0 (Herbicidal ratio of 5% or less (almost no effect)); effect on crop, c (Glycine max) (Glycine max): 0 (Herbicidal ratio of 5% or less (almost no effect)); effect on crop, g (Brassica campestris L.) (Brassica campestris L.): 0 (Herbicidal ratio of 5% or less (almost no effect)); effect on crop, b (Zea mays) (Zea mays): 0 (Herbicidal ratio of 5% or less (almost no effect)); effect on crop, d (directly sowed Oryza sativa) [4]: 3 (Herbicidal ratio of 40% or more and less than 70%)
4 | CCSc1nnc2c(C(=O)Nc3nnnn3CCOC)ccc(C(F)(F)F)n12 [2-098] | – | – | – | – | – | – | – | – | – | – | – | – | – | 5 (Herbicidal ratio of 90% or more (almost completely withered)) | 5 (Herbicidal ratio of 90% or more (almost completely withered)) | – | – | – | – | – | herbicidal effect, P (Stellaria media) (Stellaria media): 5 (Herbicidal ratio of 90% or more (almost completely withered)); herbicidal effect, M (Abutilon theophrasti) (Abutilon theophrasti): 4 (Herbicidal ratio of 70% or more and less than 90%); herbicidal effect, O (Chenopodium album) (Chenopodium album): 5 (Herbicidal ratio of 90% or more (almost completely withered)); herbicidal effect, K (Lolium multiflorum Lam.) (Lolium multiflorum Lam.): 3 (Herbicidal ratio of 40% or more and less than 70%); herbicidal effect, Q (Galium spurium) (Galium spurium): 4 (Herbicidal ratio of 70% or more and less than 90%); herbicidal effect, L (Apera spica-venti.) (Apera spica-venti.): 4 (Herbicidal ratio of 70% or more and less than 90%); herbicidal effect, J (Alopecurus myosuroides) (Alopecurus myosuroides): 2 (Herbicidal ratio of 20% or more and less than 40%); herbicidal effect, I (Avena fatua) (Avena fatua): 4 (Herbicidal ratio of 70% or more and less than 90%); herbicidal effect, F (Digitaria ciliaris) (Digitaria ciliaris): 5 (Herbicidal ratio of 90% or more (almost completely withered)); herbicidal effect, R (Veronica persica) (Veronica persica): 4 (Herbicidal ratio of 70% or more and less than 90%); herbicidal effect, G (Setaria viridis) (Setaria viridis): 5 (Herbicidal ratio of 90% or more (almost completely withered)); herbicidal effect, N (Amaranthus retroflexus) (Amaranthus retroflexus): 5 (Herbicidal ratio of 90% or more (almost completely withered)); herbicidal effect, H (Echinochloa crus-galli var. crus-galli) [1]: 5 (Herbicidal ratio of 90% or more (almost completely withered)); effect on crop, f (Beta vulgaris ssp. vulgaris) [3]: 5 (Herbicidal ratio of 90% or more (almost completely withered)); effect on crop, e (Triticum aestivum) (Triticum aestivum): 3 (Herbicidal ratio of 40% or more and less than 70%); effect on crop, c (Glycine max) (Glycine max): 1 (Herbicidal ratio of 5% or more and less than 20%); effect on crop, g (Brassica campestris L.) (Brassica campestris L.): 4 (Herbicidal ratio of 70% or more and less than 90%); effect on crop, b (Zea mays) (Zea mays): 4 (Herbicidal ratio of 70% or more and less than 90%); effect on crop, d (directly sowed Oryza sativa) [4]: 4 (Herbicidal ratio of 70% or more and less than 90%)
